# Experimental data reported in article PMC6006164, “Natural cyclopeptide RA-V inhibits the NF-κB signaling pathway by targeting TAK1” (Cell Death & Disease, 2018).
# Several values for one entry are separate records, joined by “and”; a condition that tells them apart may be missing. Equal entries are not always repeated.
# Test system: NF-κB signaling pathway
# Assay: NF-κB-dependent luciferase reporter (5×κB-luciferase/pTK-Renilla), TNF-α-induced, HEK293T cells
# Assay type: cell-based
# Details: HEK293T screen, 24-well
# Procedure: HEK293T or HeLa cells were seeded in 24-well plates and transiently transfected with the 5 × κB-luciferase and pTK-Renilla reporters using Lipofectamine 2000 (Invitrogen) for 18 h. The cells were then incubated with different concentrations of the compounds for the indicated times and subsequently stimulated with 10 ng/mL TNF-α for 2 h. The luciferase activity in the cell lysates was analyzed using the Dual Luciferase Reporter Assay System (Promega). The luciferase reporter assays were performed as previously described.
# Supplementary Figure 1. RA-V has the best inhibitory effect on NF-κB signaling pathway among RAs. (a-b) HEK293T cells were transfected with the 5×κB-luciferase and pTK-Renilla reporters. Twenty-four hours after transfection, the cells were incubated with various concentrations of the indicated compounds for 6 h and then treated with 10 ng/ml TNF-α for 2 h before the luciferase activity assays. The data are presented as the means ± S.D. from three independent experiments. […]
# Scheme for CB12 synthesis. (c) CB12 inhibited NF-κB reporter activity in a dose-dependent manner. The HEK293T cells were transfected with the 5×κB-luciferase and pTK-Renilla reporters. Twenty-four h after transfection, the cells were treated with various concentrations of CB12 for 6 h and then treated with 10 ng/ml TNF-α for 2 h before the luciferase activity assays. (d) […]
# Supplementary Table 3: Screening data of small molecules
# Category Parameter Description
# Assay Type of assay Cell-based
# Target NF-κB signaling pathway
# Primary measurement Detection of Firefly luciferase enzyme activities and Renilla Luciferase expression
# Key reagents 5 × κB-lucieferase and luciferase assay (Progema)
# Assay protocol HEK293T cells were seeded in 24 -well plates and transiently transfected with 20 ng of 5×κB-luciferase and 2 ng of pTK-Renilla reporters using Lipofectamine
# 2000 (Invitrogen) for 18 h. The cells were then incubated with small molecules (10 μM) for 6 hours, and subsequently stimulated with 10 ng/ml TNF -α for 2 h. Luciferase activity of the cell lysates was analysed by the Dual Luciferase Reported Assay System
# (Promega). The Firefly luciferase enzyme activities were determined for NF -κB signaling activities and normalized to Renilla Luciferase expression.
# Library Library size approximately 200
# Library composition natural and synthetic chemical compounds, including cyclopeptides, quinones and terpenes.
# Source State Key Laboratory of Phytochemistry and Plant
# Resources in West China, Kunming Institute of Botany, Chinese Academy of Sciences
# Screen Format 24-well, Corning
# Concentration(s) tested 10 μM
# Reagent/ compound dispensing system Manual
# Detection instrument and software Synergy 2 (BioTek)
# Assay validation/QC Velcade inhibits NF-κB signaling pathway
# Normalization The Firefly luciferase enzyme activities were normalized by Renilla Luciferase expression
# Post-HTS analysis Hit criteria κB-luc/ Renilla ratio < 0.5 standard deviations from the […]
# Hit rate Approximately 15%
# Confirmation of hit purity and structure Compounds were verified by HPLC and NMR
row,Compound,"NF-κB signaling pathway (plate control, assay validation)"
1,"CC(C)C[C@H](NC(=O)[C@H](Cc1ccccc1)NC(=O)c1cnccn1)B(O)O [Velcade, Bortezomib, reference compound]",inhibits

# Same assay, conditions: HEK293T; compounds 6 h, then 10 ng/ml TNF-α 2 h; means of three independent experiments; read-out: IC50 (μM), NF-κB reporter activity
row,Compound,IC50
1,C-6β-oxy-RA-IV,2.06 µM
2,O-seco-RA-V,> 15 µM
3,RA-I,1.31 µM
4,RA-III,1.1 µM
5,RA-IV,10.6 µM
6,RA-VII,0.089 µM
7,RA-XI isoform 1,> 15 µM
8,RA-XI isoform 2,> 15 µM
9,RA-XII,1.85 µM
10,RA-XIII,> 15 µM
11,RA-XIII-OMe,> 15 µM
12,RA-XXIV,11.9 µM
13,RY-II,> 15 µM and 19 µM
14,Rubiaschumanin A,> 15 µM
15,Rubiaschumanin B,3.88 µM
16,Rubiaschumanin C,> 15 µM
17,Rubicordifolin A,3.41 µM
18,Rubicordifolin C,6.87 µM
19,Rubiyunnanin A,> 15 µM
20,Rubiyunnanin B,> 15 µM and 15.1 µM
21,Rubiyunnanin C,> 15 µM
22,Rubiyunnanin D,> 15 µM
23,Rubiyunnanin E,> 15 µM
24,Rubiyunnanin F,> 15 µM
25,Rubiyunnanin G,> 15 µM
26,Rubiyunnanin H,> 15 µM
27,Rubiyunnanin I,> 15 µM

# Target: T1, TAK1 (Homo sapiens, UniProt O43318)
# T1 construct: expressed in transfected cells; host or cells: HEK293T
# T1 sequence (O43318 1-579 isoform O43318-2): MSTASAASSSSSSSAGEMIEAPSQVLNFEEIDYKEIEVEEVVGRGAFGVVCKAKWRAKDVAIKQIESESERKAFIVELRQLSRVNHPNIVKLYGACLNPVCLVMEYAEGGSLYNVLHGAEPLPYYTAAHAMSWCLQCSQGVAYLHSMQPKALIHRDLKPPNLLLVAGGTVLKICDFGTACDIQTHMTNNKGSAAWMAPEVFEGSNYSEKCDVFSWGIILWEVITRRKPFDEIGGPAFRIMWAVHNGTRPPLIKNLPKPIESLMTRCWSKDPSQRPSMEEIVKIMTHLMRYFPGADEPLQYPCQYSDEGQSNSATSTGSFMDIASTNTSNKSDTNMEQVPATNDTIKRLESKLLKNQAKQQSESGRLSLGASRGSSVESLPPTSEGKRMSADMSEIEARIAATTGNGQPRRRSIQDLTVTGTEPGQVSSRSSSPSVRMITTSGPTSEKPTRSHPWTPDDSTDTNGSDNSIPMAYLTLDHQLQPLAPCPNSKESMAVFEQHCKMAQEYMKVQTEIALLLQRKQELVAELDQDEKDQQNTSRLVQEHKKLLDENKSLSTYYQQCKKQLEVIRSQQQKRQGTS
# Assay: Streptavidin agarose pull-down with biotin-tagged probe CB12
# Assay type: binding
# Details: lysates of HEK293T transfected with TAK1; RA-V in 10-fold excess
# Procedure: HEK293T cells were transfected with TAK1 for 24 h, then the cell lysates were incubated with biotin or CB12 followed by streptavidin agarose pull-down. […] HEK293T cells were transfected with the indicated plasmids for 24 h. The cell lysates were pulled down with streptavidin agarose and then immunoblotted with HA or Flag antibody. Each experiment was repeated at least three times
# HEK293T cells were transfected with TAK1-N or TAK1-C for 24 h. The cells lysates were incubated with CB12 or biotin and precipitated with streptavidin-coated sepharose and were analyzed by immunoblotting with Flag antibody. b The model for RA-V binding to the crystal structure of the TAK1–TAB1 fusion protein (PDB 4GS6). […] HEK293T cells were transfected with TAK1 for 24 h, and then the cell lysates were incubated with biotin or CB12 before precipitation with streptavidin agarose. […] HeLa cells were incubated with various concentrations of RA-V for 12 h and then treated with 10 ng/mL TNF-α for 10 min. The cell lysates were prepared and western blotted with the indicated antibodies. Each experiment was repeated at least three times
# HEK293T cells were harvested and lysed in RIPA buffer with protease inhibitors. […] The samples were separated by SDS-PAGE, and the bound proteins were detected using the indicated antibodies.
row,Compound,competition with the CB12–TAK1 interaction (pull-down)
1,"COc1cc(O)c2c(c1)/C=C/C[C@H](O)[C@H](O)C(=O)/C=C\C[C@H](C)OC2=O [(5Z)-7-Oxozeaenol, reference compound]",effectively competed
